Test [1] can be described thus: Chikungunya virus CPE inhibition, VEEV inhibitor project, cell-based, set 2 (AID 651738). The note with it: Chikungunya virus infected cells, CPE inhibition; at 50 µM (top of the series).
Test [2] relates to Chikungunya virus infected cells, CPE inhibition. The description is as above.

SMILES strings stand for the structures. pIC50: −log10 of the molar value. Calls of active or inactive are those of the source. How the calls were made is not given here.

The term inhibition denotes the drop in the measured response relative to a control, in per cent. Usually pIC50 stands for the negative decadic logarithm of the IC50, by convention in mol/L.

On to `CN1CCN(C)C(=Nc2ccc(C#N)cc2C(=O)Nc2ccccc2)C1`, for which, in test [1], the inhibition was 3% (inactive).
Consider `CN1CCN(C)C(=Nc2ccc([N+](=O)[O-])cc2C(=O)Nc2ccccc2F)C1`, for which, in test [1], the inhibition was 8.6% (inactive).
Consider `CN(c1ccc(OCc2ccccc2)cc1)c1nc(=O)c2cccnc2s1`, for which, in test [2], the negative logarithm of the IC50 (pIC50) is 5.76.
As to `COc1ccc(CNc2nc(=O)c3cccnc3s2)cc1`, the inhibition in test [1] is 0.1% (inactive).
Still for that read-out and setting: next, `O=c1c2cc(F)c(F)cc2nc(CN2CCNCC2)n1-c1ccccc1`: -1% (inactive).
Still for that read-out and setting: in the case of `COc1ccc(Nc2nc(=O)c3cccnc3s2)cc1` it was 11.7% (inactive); in that of `O=c1c2cc([N+](=O)[O-])ccc2nc(CN2CCCNCC2)n1-c1ccccc1`, -3.1% (inactive); in that of `COc1ccc(NC(=O)c2cc([N+](=O)[O-])ccc2N=C2CN(C)CCN2C)cc1`, 2.2% (inactive).
Turning to `O=c1c2cc([N+](=O)[O-])ccc2nc(CN2CCCNC2)n1-c1ccccc1`, in test [1], the inhibition is -0.2% (inactive).
For the compound `CCN1CCN(Cc2nc3ccc(-c4ccccn4)cc3c(=O)n2-c2ccccc2)CC1`, in test [1], the inhibition is 4.3% (inactive).
As to `CCN1CCN(C2c3ncccc3C(=O)N2c2ccccc2)CC1` (stereo not drawn), in test [1], the inhibition is -1.8% (inactive).
On the same count and under the same terms, next, `CCN1CCN(Cc2nc3ccc([N+](=O)[O-])cc3c(=O)n2-c2ccccc2F)CC1`: -0.8% (inactive); `CN1CCN(C)C(=Nc2ccc([N+](=O)[O-])cc2C(=O)Nc2ccccc2)C1`: -3.1% (inactive).

Source of the values: PubChem BioAssay AID651738 (Southern Research Specialized Biocontainment Screening …, 2012).
